Biological target: T1, Human 5-lipoxygenase (Homo sapiens, UniProt P09917)
T1 construct: purchased Cayman 60402; host or cells: insect cells
T1 sequence (P09917 1-674): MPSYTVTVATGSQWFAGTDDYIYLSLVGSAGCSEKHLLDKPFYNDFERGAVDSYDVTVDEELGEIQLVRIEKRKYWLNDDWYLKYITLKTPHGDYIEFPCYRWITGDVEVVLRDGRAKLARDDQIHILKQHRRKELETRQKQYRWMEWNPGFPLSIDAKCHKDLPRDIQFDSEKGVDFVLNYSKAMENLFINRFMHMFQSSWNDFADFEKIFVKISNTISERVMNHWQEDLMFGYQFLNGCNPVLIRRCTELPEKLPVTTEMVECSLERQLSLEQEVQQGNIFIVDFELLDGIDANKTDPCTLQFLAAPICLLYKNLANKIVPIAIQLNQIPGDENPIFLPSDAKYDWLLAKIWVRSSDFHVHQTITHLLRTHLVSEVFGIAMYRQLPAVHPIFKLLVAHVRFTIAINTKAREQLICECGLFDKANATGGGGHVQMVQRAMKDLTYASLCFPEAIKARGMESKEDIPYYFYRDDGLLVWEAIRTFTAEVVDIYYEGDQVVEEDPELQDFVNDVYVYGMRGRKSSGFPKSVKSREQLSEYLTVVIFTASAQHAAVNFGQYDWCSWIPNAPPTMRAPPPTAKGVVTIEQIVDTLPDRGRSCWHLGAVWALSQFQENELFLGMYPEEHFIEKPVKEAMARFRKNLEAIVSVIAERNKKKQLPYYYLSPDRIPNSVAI
Test: Activity of compounds against 5-LO enzyme (LTB4 measurement and/or fluorescence method)
Assay type: biochemical
Conditions: for inhibition at 10 µM: 5-LO, single concentration of 10 uM in duplicate; for IC50: 6 or 11 point dose response in duplicate
Procedure, shortened: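 Insect-cell human 5-LO preincubated 15 min at RT with compound (pH 7.4, 2 mM CaCl2, 0.1 mM ATP, 1% DMSO), then 3 uM arachidonic acid for 5 min at 37 °C; LTB4 quantified by EIA and/or LC/MS/MS. Alternatively, fluorescence of 5-HpETE via H2DCFDA, 100 uM ATP, 3 uM arachidonic acid, 5 min, RT; single 10 uM screen then 6- or 11-point IC50.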

Row | inhibition at 10 µM [%] | IC50 [µM] | SMILES
1 | 40 to 69 | – | CCc1nc2cc([N+](=O)[O-])ccn2c1C(=O)NCc1ccc(OC(F)(F)F)cc1 [compound 150, 2-Ethyl-7-nitro-N-(4-(trifluoromethoxy)benzyl)imidazo[1,2-a]pyridine-3-carboxamide]
2 | 40 to 69 | – | CCc1nc2cc(Cl)ccn2c1C(=O)NCc1ccc(N2CCC(Oc3ccc(Cl)cc3)CC2)cc1 [compound 167, 7-Chloro-N-(4-(4-(4-chlorophenoxy)piperidin-1-yl)benzyl)-2-ethylimidazo[1,2-a]pyridine-3-carboxamide]
3 | < 40 | – | Cc1nc2ccc(Cl)cn2c1C(=O)NCc1ccc(-c2ccccc2)cc1 [compound 43, N-(Biphenyl-4-ylmethyl)-6-chloro-2-methylimidazo[1,2-a]pyridine-3-carboxamide]
4 | < 40 | – | CCc1nc2ccc(Cl)cn2c1C(=O)NCc1ccc(N2CCC(COC(C)C)CC2)cc1 [compound 276, 6-Chloro-2-ethyl-N-(4-(4-(isopropoxymethyl)piperidin-1-yl)benzyl)imidazo[1,2-a]pyridine-3-carboxamide]
5 | 40 to 69 | – | CCOC(=O)C1CCN(c2ccc(CNC(=O)c3c(CC)nc4ccc(Cl)cn34)cc2)CC1 [compound 269, Ethyl1-(4-((6-chloro-2-ethylimidazo[1,2-a]pyridine-3-carboxamido)methyl)phenyl)piperidine-4-carboxylate]
6 | 40 to 69 | – | CCc1nc2cc(Cl)ccn2c1C(=O)NCc1ccc(-c2ccc(C(C)(C)C)cc2)cc1 [compound 114, N-((4′-tert-Butylbiphenyl-4-yl)methyl)-7-chloro-2-ethylimidazo[1,2-a]pyridine-3-carboxamide]
7 | < 40 | – | Cc1nc2cc(C#N)ccn2c1C(=O)NCc1ccccc1 [compound 42, N-Benzyl-7-cyano-2-methylimidazo[1,2-a]pyridine-3-carboxamide]
8 | < 40 | – | CCc1nc2ccc(Cl)cn2c1C(=O)NCc1ccc(N2CCC(C(=O)O)CC2)cc1 [compound 307, 1-(4-((6-Chloro-2-ethylimidazo[1,2-a]pyridine-3-carboxamido)methyl)phenyl)piperidine-4-carboxylic acid]
9 | < 40 | – | CCc1nc2ccccn2c1C(=O)NCc1ccc(C(C)(C)C)cc1 [compound 49, N-(4-tert-Butylbenzyl)-2-ethylimidazo[1,2-a]pyridine-3-carboxamide]
10 | 40 to 69 | – | CCc1nc2cc(Cl)ccn2c1C(=O)NCc1ccc(Br)cc1 [compound 96, N-(4-Bromobenzyl)-7-chloro-2-ethylimidazo[1,2-a]pyridine-3-carboxamide]
11 | < 40 | – | CCc1nc2ccc(Cl)cn2c1C(=O)NCc1ccc2ccn(C)c2c1 [compound 68]
12 | < 40 | – | Cc1nc2ccccn2c1C(=O)NCc1ccc(F)cc1 [compound 4, N-(4-Fluorobenzyl)-2-methylimidazo[1,2-a]pyridine-3-carboxamide]
13 | 40 to 69 | – | CCc1nc2ccc(F)cn2c1C(=O)NCc1ccc(OC(F)(F)F)cc1 [compound 120, 2-Ethyl-6-fluoro-N-(4-(trifluoromethoxy)benzyl)imidazo[1,2-a]pyridine-3-carboxamide]
14 | < 40 | – | CCc1nc2cc(Cl)ccn2c1C(=O)NCc1ccc(N2CCOCC2)c(Cl)c1 [compound 303, 7-Chloro-N-(3-chloro-4-morpholinobenzyl)-2-ethylimidazo[1,2-a]pyridine-3-carboxamide]

Continued, compound first:

Row | SMILES | inhibition at 10 µM [%] | IC50 [µM]
15 | O=C(NCc1ccccc1)c1c(C2CC2)nc2ccccn12 [compound 38, N-Benzyl-2-cyclopropylimidazo[1,2-a]pyridine-3-carboxamide] | < 40 | –
16 | CCc1nc2c(-c3ccncc3)cccn2c1C(=O)NCc1ccc(N2CCOCC2)cc1 [compound 284, 2-Ethyl-N-(4-morpholinobenzyl)-8-(pyridin-4-yl)imidazo[1,2-a]pyridine-3-carboxamide] | < 40 | –
17 | CCc1nc2ccc(Cl)cn2c1C(=O)NCC1CCCc2c1cnn2-c1ccc(OC(F)(F)F)cc1 (stereo not drawn) [compound 147, 6-Chloro-2-ethyl-N-((1-(4-(trifluoromethoxy)phenyl)-4,5,6,7-tetrahydro-1H-indazol-4-yl)methyl)imidazo[1,2-a]pyridine-3-carboxamide] | 40 to 69 | –
18 | Cc1nc2ccc(-c3ccccc3)cn2c1C(=O)NCc1ccccc1 [compound 39, N-Benzyl-2-methyl-6-phenylimidazo[1,2-a]pyridine-3-carboxamide] | < 40 | –
19 | CCc1nc2c(OC)cccn2c1C(=O)NCc1ccc(N2CCN(c3ccc(F)cc3)CC2)cc1 [compound 263, 2-Ethyl-N-(4-(4-(4-fluorophenyl)piperazin-1-yl)benzyl)-8-methoxyimidazo[1,2-a]pyridine-3-carboxamide] | 40 to 69 | –
20 | Cc1nc2c(C)cccn2c1C(=O)NCc1ccccc1 [compound 31, N-Benzyl-2,8-dimethylimidazo[1,2-a]pyridine-3-carboxamide] | < 40 | –
21 | Cc1nc2ccccn2c1C(=O)Nc1ccc(Oc2ccccc2)cc1 [compound 13, 2-Methyl-N-(4-phenoxyphenyl)imidazo[1,2-a]pyridine-3-carboxamide] | < 40 | –
22 | Cc1nc2c(O)cccn2c1C(=O)NCc1ccccc1 [compound 48, N-Benzyl-8-hydroxy-2-methylimidazo[1,2-a]pyridine-3-carboxamide] | < 40 | –
23 | CCc1nc2ccc(Cl)cn2c1CNCCc1cccnc1 [compound 343, N-((6-chloro-2-ethylimidazo[1,2-a]pyridin-3-yl)methyl)-2-(pyridin-3-yl)ethanamine] | < 40 | –
24 | CCc1nc2ccc(Cl)cn2c1C(=O)N1CC[C@H](OCc2ccc(OC(F)(F)F)cc2)C1 [compound 390, (S)-(6-chloro-2-ethylimidazo[1,2-a]pyridin-3-yl)(3-(4-(trifluoromethoxy)benzyloxy)-pyrrolidin-1-yl)methanone] | – | 1 to 20
25 | Cc1nc2ccccn2c1C(=O)NCCc1ccccc1 [compound 12, 2-Methyl-N-phenethylimidazo[1,2-a]pyridine-3-carboxamide] | < 40 | –
26 | CCc1nc2ccc(Cl)cn2c1CNCc1ccc(N2CCN(c3ccc(F)cc3)CC2)cc1 [compound 381, 1-(6-chloro-2-ethylimidazo[1,2-a]pyridin-3-yl)-N-(4-(4-(4-fluorophenyl)piperazin-1-yl)benzyl)methanamine] | – | 1 to 20
27 | CCc1nc2ccc(Cl)cn2c1C(=O)NCc1ccc(N2CCC(NC(=O)Cc3ccc(F)cc3)CC2)cc1 [compound 316, 6-chloro-2-ethyl-N-(4-(4-(2-(4-fluorophenyl)acetamido)piperidin-1-yl)benzyl)imidazo[1,2-a]pyridine-3-carboxamide] | < 40 | –
28 | Cc1nc2ccccn2c1C(=O)NCc1cccnc1 [compound 5, 2-Methyl-N-(pyridin-3-ylmethyl)imidazo[1,2-a]pyridine-3-carboxamide] | < 40 | –
29 | CCc1nc2ccc(Cl)cn2c1CNCCc1ccncc1 [compound 344, N-((6-chloro-2-ethylimidazo[1,2-a]pyridin-3-yl)methyl)-2-(pyridin-4-yl)ethanamine] | < 40 | –
30 | CCc1nc2ccc(Cl)cn2c1CNCc1ccc(N2CCC(OCc3ccccc3)CC2)cc1 [compound 341, N-(4-(4-(benzyloxy)piperidin-1-yl)benzyl)-1-(6-chloro-2-ethylimidazo[1,2-a]pyridin-3-yl)methanamine] | 40 to 69 | –
